Results reported in the Kinase Knowledgebase extract (Sharma et al. 2016).

Assays:
EGFR (human) [1] = target: EGFR (human) (UniProt P00533); details: mda-mb-361
EGFR (human) [2] = target: EGFR (human) (UniProt P00533); details: mda-mb-231
EGFR (human) [3] = target: EGFR (human) (UniProt P00533); details: mda-mb-231; remark: listed apart in the source
EGFR (human) [4] = target: EGFR (human) (UniProt P00533); details: mda-mb-231; remark: listed apart in the source

EGFR (human), sequence (P00533 whole entry, looked up): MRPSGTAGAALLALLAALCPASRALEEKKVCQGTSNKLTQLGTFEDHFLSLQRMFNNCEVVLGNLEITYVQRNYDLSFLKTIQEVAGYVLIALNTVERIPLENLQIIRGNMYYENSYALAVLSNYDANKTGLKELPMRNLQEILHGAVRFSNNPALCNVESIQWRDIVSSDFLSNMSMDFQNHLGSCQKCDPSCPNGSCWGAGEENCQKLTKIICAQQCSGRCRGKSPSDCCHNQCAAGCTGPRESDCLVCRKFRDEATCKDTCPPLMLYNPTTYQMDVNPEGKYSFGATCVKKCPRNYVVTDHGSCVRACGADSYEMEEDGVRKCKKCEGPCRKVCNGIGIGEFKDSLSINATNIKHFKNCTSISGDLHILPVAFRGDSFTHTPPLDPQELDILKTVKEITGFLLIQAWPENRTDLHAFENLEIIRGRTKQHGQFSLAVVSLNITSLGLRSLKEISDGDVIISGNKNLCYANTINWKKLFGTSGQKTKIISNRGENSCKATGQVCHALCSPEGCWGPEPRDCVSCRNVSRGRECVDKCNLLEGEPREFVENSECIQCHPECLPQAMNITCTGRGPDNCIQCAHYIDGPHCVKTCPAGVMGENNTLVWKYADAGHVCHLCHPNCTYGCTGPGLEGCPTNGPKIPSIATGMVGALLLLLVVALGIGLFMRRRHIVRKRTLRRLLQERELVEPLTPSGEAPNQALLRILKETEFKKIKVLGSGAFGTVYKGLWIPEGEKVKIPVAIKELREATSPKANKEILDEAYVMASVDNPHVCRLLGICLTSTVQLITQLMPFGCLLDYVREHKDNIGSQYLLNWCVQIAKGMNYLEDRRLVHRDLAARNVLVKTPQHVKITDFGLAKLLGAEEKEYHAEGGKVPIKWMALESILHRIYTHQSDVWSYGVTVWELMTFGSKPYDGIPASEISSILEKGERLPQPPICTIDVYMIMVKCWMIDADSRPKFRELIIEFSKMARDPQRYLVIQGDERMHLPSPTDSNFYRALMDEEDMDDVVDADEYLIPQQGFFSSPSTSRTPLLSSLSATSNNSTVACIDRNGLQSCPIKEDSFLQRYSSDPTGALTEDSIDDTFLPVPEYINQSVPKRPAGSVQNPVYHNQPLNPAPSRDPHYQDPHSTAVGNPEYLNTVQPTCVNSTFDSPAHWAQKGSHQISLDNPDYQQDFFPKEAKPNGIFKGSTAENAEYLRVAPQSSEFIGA

SMILES | IC50 (EGFR (human) [1]) | IC50 (EGFR (human) [2]) | IC50 (EGFR (human) [3]) | IC50 (EGFR (human) [4])
C/C(O)=C(\C#N)C(=O)Nc1ccccc1Br | > 300 µM | > 300 µM | – | > 100 µM
C/C(O)=C(\C#N)C(=O)Nc1ccccc1F | > 300 µM | > 300 µM | – | 74.5 µM
C/C(O)=C(\C#N)C(=O)Nc1cccc(Cl)c1 | > 300 µM | > 300 µM | – | > 100 µM
C/C(O)=C(\C#N)C(=O)Nc1cccc(Br)c1 | > 300 µM | > 300 µM | – | > 100 µM
C/C(O)=C(\C#N)C(=O)Nc1ccccc1Cl | > 300 µM | > 300 µM | – | > 100 µM
C/C(O)=C(\C#N)C(=O)Nc1cc(Br)ccc1Br | > 300 µM | > 300 µM | – | > 100 µM

Next, values leading:

IC50 (EGFR (human) [1]) | IC50 (EGFR (human) [2]) | IC50 (EGFR (human) [3]) | IC50 (EGFR (human) [4]) | SMILES
26.3 µM | 53.4 µM | 28.4 µM | – | C/C(O)=C(\C#N)C(=O)Nc1ccc(OC(F)(F)F)cc1
190 µM | 199 µM | 97 µM | 5.4 µM | C/C(O)=C(\C#N)C(=O)Nc1ccc(C(F)(F)F)cc1
> 300 µM | > 300 µM | – | > 100 µM | C/C(O)=C(\C#N)C(=O)Nc1ccccc1
> 300 µM | > 300 µM | – | > 100 µM | C/C(O)=C(\C#N)C(=O)Nc1ccc(Br)cc1
> 300 µM | > 300 µM | – | > 100 µM | C/C(O)=C(\C#N)C(=O)Nc1cccc(F)c1
> 300 µM | > 300 µM | – | > 100 µM | C/C(O)=C(\C#N)C(=O)Nc1cccc(C(F)(F)F)c1
> 300 µM | > 300 µM | – | > 100 µM | C/C(O)=C(\C#N)C(=O)Nc1ccc(F)cc1
> 300 µM | > 300 µM | – | > 100 µM | C/C(O)=C(\C#N)C(=O)Nc1ccc(Cl)cc1
> 300 µM | > 300 µM | – | > 100 µM | C/C(O)=C(\C#N)C(=O)Nc1ccccc1C(F)(F)F
